Four compounds from ChEMBL document CHEMBL1151783 (Bioorg Med Chem Lett, 2008) can be followed below.

≈ marks a conversion by molar mass, not a printed value. Calls of active or inactive are those of the source. The rule behind the calls is not given here. Some results are limits rather than exact numbers.

Data set [1] can be described thus: Solubility in phosphate buffer saline after 2 hrs. Type of data set: physicochemical. The settings on record: phosphate buffered saline.
Data set [2] can be described thus: Binding affinity to bovine tubulin after 2 hrs by fluorescence polarization assay. Also noted: species or system Bos taurus. A general note: Fluorescence polarisation rises when a labelled molecule tumbles more slowly, as on binding a larger partner.
The nature of data set [3]: Membrane permeability by PAMPA. As to conditions: for Papp: read-out: permeability. It counts as ADME. (In general: In PAMPA a lipid-coated filter parts donor from acceptor wells.)
For data set [4], the species on record is Bos taurus. As to the kind of experiment: Binding affinity to bovine tubulin at 10 uM after 2 hrs by fluorescence polarization assay.
The nature of data set [5]: Displacement of [3H]colchicine from bovine tubulin after 2 hrs by fluorescence polarization assay. Also noted: species or system Bos taurus.
Data set [6] is filed under the species Bos taurus. As to the kind of experiment: Inhibition of bovine tubulin polymerization at 5 uM.
In another data set the test system is HepG2. As to the kind of experiment: Cytotoxicity against human HepG2 cells after 48 hrs by luminescence cell viability assay. It counts as functional, cell-based. As to conditions: HepG2, 48 h.
In the next data set the test system is HeLa. The data set is described as follows: Cytotoxicity against human HeLa cells after 48 hrs by luminescence cell viability assay. Type of data set: functional, cell-based.
The subject of a further data set is Raji. The data set is described as follows: Cytotoxicity against human Raji cells after 48 hrs by luminescence cell viability assay. Type of data set: functional, cell-based.
Data set [7] relates to Vero. The data set is described as follows: Cytotoxicity against african green monkey Vero cells after 48 hrs by luminescence cell viability assay. It counts as cell-based. The settings on record: Chlorocebus sabaeus.
Data set [8] deals with Vero. As to the kind of experiment: Induction of apoptosis in african green monkey Vero cells assessed as caspase 3/7 activity after 18 hrs […]. It counts as functional, cell-based. The settings on record: Chlorocebus sabaeus. In general terms: A flow cytometer gives signals particle by particle.
For data set [9], the system named is Vero. The data set is described as follows: Cell cycle arrest in african green monkey Vero cells assessed as accumulation at G2/M phase after 18 hrs by flow cytometry using propidium iodide staining. Type of data set: functional, cell-based. The settings on record: Chlorocebus sabaeus.
The species named for data set [10] is Bos taurus. As to the kind of experiment: Inhibition of bovine tubulin polymerization at 10 uM.

The term solubility denotes the concentration that dissolves in the medium under given conditions. As a reminder, the Kd is the equilibrium constant for the complex coming apart. The IC50 is the midpoint of a concentration-inhibition curve. As a reminder, the EC50 is the concentration at which the effect is half-maximal. On to `COc1cc2c(c(OC)c1OC)-c1ccc(OC)c(=O)cc1[C@@H](NC(=O)CCC1=[N+]3C(=Cc4cccn4[B-]3(F)F)C=C1)CC2`, for which the solubility at 2 h in data set [1] stood at 32 µM (≈ 19.3 µg/mL). Binding in [2] was put at a Kd of 5800 nM. Also, in data set [3], the Papp was 108 ×10⁻⁶ cm/s. The outcome in the data set filed under Bos taurus [4] and in the data set filed under Bos taurus [6] was Active. In [5], the IC50 worked out at 3900 nM. In addition, the 50% effective concentration (EC50) in the data set on HepG2 is 180 nM; in the data set with HeLa it was 360 nM; in the data set with Raji it was 138 nM; with Vero [7], 2300 nM; with Vero [8] it was 2600 nM; with Vero [9] it was 960 nM.
`CC(=O)O[C@H]1C(=O)[C@@]2(C)[C@H]([C@H](OC(=O)c3ccccc3)[C@]3(O)C[C@H](OC(=O)[C@H](O)[C@@H](NC(=O)c4ccccc4)c4ccccc4)C(C)=C1C3(C)C)[C@]1(OC(C)=O)CO[C@@H]1C[C@@H]2O`: in the data set filed under Bos taurus [10], the outcome was inactive.
With `COc1cc2c(c(OC)c1OC)-c1ccc(OC)c(=O)cc1[C@@H](NC(C)=O)CC2` [COLCHICINE], the solubility at 2 h in data set [1] was > 250 µM. In data set [3], the permeability is 415 ×10⁻⁶ cm/s. Further, the outcome in the data set listed under Bos taurus [6] was Active.
Take `COc1cc2c(c(OC)c1OC)-c1ccc(OC)c(=O)cc1[C@@H](NC(=O)CCCCCNC(=O)COc1ccc(/C=C/C3=[N+]4C(=Cc5ccc(-c6ccc[nH]6)n5[B-]4(F)F)C=C3)cc1)CC2`: the solubility at 2 h in data set [1] was < 10 µM. This compound also returned a dissociation constant Kd in data set [2] of 7600 nM. For the same compound, the Papp in data set [3] is < 10 ×10⁻⁶ cm/s. The compound further came in with a 50% inhibitory concentration (IC50) in data set [5] of 6400 nM. In the data set listed under Bos taurus [6], the outcome was Active. Besides, the 50% effective concentration (EC50) in the data set on HepG2 is 1200 nM; in the data set on HeLa it was 1900 nM; with Raji, 650 nM; with Vero [7], > 10000 nM; with Vero [8], 10500 nM; in the data set on Vero [9] it was 6800 nM.
